According to patent publication US6737383B1, “Herbicidal oxadiazolidines” (priority 1999, dated 2004):

How the values were obtained:
[1] = test system: bedstraw; experiment: Test B pre/postemergence bedstraw; assay type: in vivo, Galium aparine
Outline: (§1)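 Response is a visual 0-to-10 score relative to untreated plants, where 0 means no effect and 10 means complete control, taken twelve to sixteen days after application. Treatments went onto soil at planting and onto foliage of 1- to 4-leaf plants, using a surfactant-containing non-phytotoxic solvent.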

[2] = test system: blackgrass; experiment: Test B pre/postemergence blackgrass; assay type: in vivo, Alopecurus myosuroides
Outline: as §1

[3] = test system: surinam grass; experiment: Test B pre/postemergence surinam grass; assay type: in vivo, Brachiaria decumbens
Outline: as §1

[4] = test system: cocklebur; experiment: Test B pre/postemergence cocklebur; assay type: in vivo, Xanthium strumarium
Outline: as §1

[5] = test system: corn; experiment: Test B pre/postemergence corn; assay type: in vivo, Zea mays
Outline: as §1

[6] = test system: crabgrass; experiment: Test B pre/postemergence crabgrass; assay type: in vivo, Digitaria sanguinalis
Outline: as §1

[7] = test system: pigweed; experiment: Test B pre/postemergence pigweed; assay type: in vivo, Amaranthus retroflexus
Outline: as §1

[8] = test system: rape; experiment: Test B pre/postemergence rape; assay type: in vivo, Brassica napus
Outline: as §1

[9] = test system: soybean; experiment: Test B pre/postemergence soybean; assay type: in vivo, Glycine max
Outline: as §1

[10] = test system: sugar beet; experiment: Test B pre/postemergence sugar beet; assay type: in vivo, Beta vulgaris
Outline: as §1

[11] = test system: velvetleaf; experiment: Test B pre/postemergence velvetleaf; assay type: in vivo, Abutilon theophrasti
Outline: as §1

[12] = test system: wheat; experiment: Test B pre/postemergence wheat; assay type: in vivo, Triticum aestivum
Outline: as §1

[13] = test system: wild oat; experiment: Test B pre/postemergence wild oat; assay type: in vivo, Avena fatua
Outline: as §1

[14] = test system: purple nutsedge; experiment: Test B pre/postemergence purple nutsedge; assay type: in vivo, Cyperus rotundus
Outline: as §1

[15] = test system: smallflower flatsedge; experiment: Test B flood test smallflower flatsedge; assay type: in vivo, Cyperus difformis
Outline: (§2)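 Read-out is a visual response score from 0 (no effect) to 10 (complete control), assigned by comparison with untreated controls. Treatment was applied at the 2-leaf stage, and plants stayed in the greenhouse for twelve to sixteen days before scoring.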

[16] = test system: bamyardgrass; experiment: Test B flood test barnyardgrass; assay type: in vivo, Echinochloa crus-galli
Outline: as §2

[17] = Preemergence, Rate 62 g/ha, scale of 0 to 10 where 0 is no effect and 10 is complete control
[18] = Preemergence, Rate 250 g/ha, scale of 0 to 10 where 0 is no effect and 10 is complete control
[19] = Preemergence, Rate 500 g/ha, scale of 0 to 10 where 0 is no effect and 10 is complete control
[20] = Rate 62 g/ha, Postemergence, scale of 0 to 10 where 0 is no effect and 10 is complete control
[21] = Rate 125 g/ha, Postemergence, scale 0 to 10
[22] = Rate 125 g/ha, Preemergence, scale of 0 to 10 where 0 is no effect and 10 is complete control
[23] = Rate 500 g/ha, Postemergence, scale 0 to 10, 0 no effect, 10 complete control
[24] = Rate 62 g/ha, headed Pre-emergence (flood test species), scale 0 to 10 (0 no effect, 10 complete control)
[25] = Rate 125 g/ha, Pre-emergence, flood test species, scale 0 to 10 where 0 is no effect and 10 is complete control
[26] = Rate 250 g/ha, Pre-emergence, flood-test species, scale 0 to 10, 0 is no effect, 10 is complete control
[27] = Rate 500 g/ha, Pre-emergence, flood test species, scale 0 to 10 (0 no effect, 10 complete control)

Cc1cc(C)c(-n2c(=O)on(C(=O)N(c3ccc(F)cc3)C(C)C)c2=O)c(Br)c1 [Compound 224]
Bedstraw plant response rating [1, 17]: 0
Bedstraw plant response rating [1, 18]: 0
Plant response rating, Bedstraw [1, 19]: 0
Bedstraw plant response rating [1, 20]: 3
Bedstraw plant response rating [1, 21]: 3
Bedstraw plant response rating [1, 22]: 0
Plant response rating (0 to 10; 0 is no effect, 10 is complete control), Bedstraw ([1]; Rate 250 g/ha, Postemergence): 4
Bedstraw plant response rating [1, 23]: 4
Blackgrass plant response rating [2, 17]: 2
Blackgrass plant response rating [2, 18]: 3
Plant response rating, Blackgrass [2, 19]: 5
Blackgrass plant response rating [2, 20]: 0
Blackgrass plant response rating [2, 21]: 0
Blackgrass plant response rating [2, 22]: 2
Plant response rating (0 to 10; 0 is no effect, 10 is complete control), Blackgrass ([2]; Rate 250 g/ha, Postemergence): 3
Blackgrass plant response rating [2, 23]: 4
B. signalgrass plant response rating [3, 17]: 0
B. signalgrass plant response rating ([3]; Preemergence, Rate 250 g/ha, scale 0 to 10, 0 is no effect, 10 is complete control): 4
Plant response rating, B. signalgrass [3, 19]: 4
B. signalgrass plant response rating [3, 20]: 0
B. signalgrass plant response rating ([3]; Rate 125 g/ha, Postemergence, scale 0 (no effect) to 10 (complete control)): 0
B. signalgrass plant response rating [3, 22]: 3
Plant response rating (0 to 10; 0 is no effect, 10 is complete control), B. signalgrass ([3]; Rate 250 g/ha, Postemergence): 0
B. signalgrass plant response rating [3, 23]: 0
Cocklebur plant response rating [4, 17]: 0
Cocklebur plant response rating [4, 18]: 0
Plant response rating, Cocklebur [4, 19]: 0
Cocklebur plant response rating [4, 20]: 0
Cocklebur plant response rating [4, 21]: 0
Cocklebur plant response rating [4, 22]: 0
Plant response rating (0 to 10; 0 is no effect, 10 is complete control), Cocklebur ([4]; Rate 250 g/ha, Postemergence): 0
Cocklebur plant response rating [4, 23]: 1
Corn plant response rating [5, 17]: 0
Corn plant response rating [5, 18]: 0
Plant response rating, Corn [5, 19]: 0
Corn plant response rating [5, 20]: 0
Corn plant response rating [5, 21]: 0
Corn plant response rating [5, 22]: 0
Plant response rating (0 to 10; 0 is no effect, 10 is complete control), Corn ([5]; Rate 250 g/ha, Postemergence): 0
Corn plant response rating [5, 23]: 0
Crabgrass plant response rating [6, 17]: 2
Crabgrass plant response rating [6, 18]: 9
Plant response rating, Crabgrass [6, 19]: 10
Crabgrass plant response rating [6, 20]: 0
Crabgrass plant response rating [6, 21]: 0
Crabgrass plant response rating [6, 22]: 5
Plant response rating (0 to 10; 0 is no effect, 10 is complete control), Crabgrass ([6]; Rate 250 g/ha, Postemergence): 3
Crabgrass plant response rating [6, 23]: 0
Redroot pigweed plant response rating [7, 17]: 0
Redroot pigweed plant response rating [7, 18]: 0
Plant response rating, Redroot pigweed [7, 19]: 4
Redroot pigweed plant response rating [7, 20]: 0
Redroot pigweed plant response rating [7, 21]: 2
Redroot pigweed plant response rating [7, 22]: 0
Plant response rating (0 to 10; 0 is no effect, 10 is complete control), Redroot pigweed ([7]; Rate 250 g/ha, Postemergence): 4
Redroot pigweed plant response rating [7, 23]: 7
Rape plant response rating [8, 17]: 0
Rape plant response rating [8, 18]: 0
Plant response rating, Rape [8, 19]: 0
Rape plant response rating [8, 20]: 0
Rape plant response rating [8, 21]: 0
Rape plant response rating [8, 22]: 0
Plant response rating (0 to 10; 0 is no effect, 10 is complete control), Rape ([8]; Rate 250 g/ha, Postemergence): 0
Rape plant response rating [8, 23]: 0
Soybean plant response rating [9, 17]: 0
Soybean plant response rating [9, 18]: 0
Plant response rating, Soybean [9, 19]: 0
Soybean plant response rating [9, 20]: 2
Soybean plant response rating [9, 21]: 3
Soybean plant response rating [9, 22]: 0
Plant response rating (0 to 10; 0 is no effect, 10 is complete control), Soybean ([9]; Rate 250 g/ha, Postemergence): 4
Soybean plant response rating [9, 23]: 2
Sugarbeets plant response rating [10, 17]: 0
Sugarbeets plant response rating [10, 18]: 0
Plant response rating, Sugarbeets [10, 19]: 0
Sugarbeets plant response rating [10, 20]: 1
Sugarbeets plant response rating [10, 21]: 2
Sugarbeets plant response rating [10, 22]: 0
Plant response rating (0 to 10; 0 is no effect, 10 is complete control), Sugarbeets ([10]; Rate 250 g/ha, Postemergence): 4
Sugarbeets plant response rating [10, 23]: 4
Velvetleaf plant response rating [11, 17]: 0
Velvetleaf plant response rating [11, 18]: 0
Plant response rating, Velvetleaf [11, 19]: 0
Velvetleaf plant response rating [11, 20]: 0
Velvetleaf plant response rating [11, 21]: 0
Velvetleaf plant response rating [11, 22]: 0
Plant response rating (0 to 10; 0 is no effect, 10 is complete control), Velvetleaf ([11]; Rate 250 g/ha, Postemergence): 0
Velvetleaf plant response rating [11, 23]: 4
Wheat plant response rating [12, 17]: 0
Wheat plant response rating [12, 18]: 0
Plant response rating, Wheat [12, 19]: 0
Wheat plant response rating [12, 20]: 0
Wheat plant response rating [12, 21]: 0
Wheat plant response rating [12, 22]: 0
Plant response rating (0 to 10; 0 is no effect, 10 is complete control), Wheat ([12]; Rate 250 g/ha, Postemergence): 0
Wheat plant response rating [12, 23]: 0
Wild oats plant response rating [13, 17]: 0
Wild oats plant response rating [13, 18]: 0
Plant response rating, Wild oats [13, 19]: 2
Wild oats plant response rating [13, 20]: 0
Wild oats plant response rating [13, 21]: 0
Wild oats plant response rating [13, 22]: 0
Plant response rating (0 to 10; 0 is no effect, 10 is complete control), Wild oats ([13]; Rate 250 g/ha, Postemergence): 0
Wild oats plant response rating [13, 23]: 0
Nutsedge plant response rating [14, 17]: 0
Nutsedge plant response rating [14, 20]: 0
Nutsedge plant response rating [14, 21]: 0
Plant response rating (0 to 10; 0 is no effect, 10 is complete control), Nutsedge ([14]; Rate 250 g/ha, Postemergence): 0
Nutsedge plant response rating [14, 23]: 0
S. Flatsedge plant response rating [15, 24]: 0
S. Flatsedge plant response rating [15, 25]: 0
S. Flatsedge plant response rating [15, 26]: 0
S. Flatsedge plant response rating [15, 27]: 0
Barnyardgrass plant response rating [16, 24]: 0
Barnyardgrass plant response rating [16, 25]: 0
Barnyardgrass plant response rating [16, 26]: 0
Barnyardgrass plant response rating [16, 27]: 0
